From patent US11400079B2, “Antibacterial monobactams” (University of Notre Dame du Lac, priority 2017, dated 2022)
Converted amounts (≈) assume the structure as drawn. Where a name gives a salt, the structure may show the parent alone. Read-outs that look alike come from different tables or passages of the source.

Tests used:
[1] = system: A. baumannii ATCC 17978-PNT-320; assay: MIC antibacterial assay (iron depleted media); assay type: cell-based, Acinetobacter baumannii
Protocol: (§1) General Methods. All solvents and reagents were obtained from commercial sources and used without further purification unless otherwise stated. General methods of purification of compounds involved the use column chromatography with silica gel (230-400 mesh) purchased from Silicycle, Quebec City, Canada. The reactions were monitored by TLC on precoated Merck 60 F254 silica gel plates and visualized using UV light (254 nm).
(§2) Antibacterial assays were performed using iron depleted media as described previously (J. Med. Chem. 2017, 60, 4577).

[2] = system: A. baumannii ATCC BAA 1793; assay: MIC antibacterial assay (iron depleted media); assay type: cell-based, Acinetobacter baumannii
Protocol: as §1, §2

A.baumannii ISR14-005 = assay: MIC antibacterial assay (iron depleted media); assay type: cell-based, Acinetobacter baumannii
Protocol: as §1, §2

A. baumannii ARC 5079 = assay: MIC antibacterial assay (iron depleted media); assay type: cell-based, Acinetobacter baumannii
Protocol: as §1, §2

[3] = system: strong β-lactamase producing strains of P. aeruginosa (ARC 3502 and ARC 3506); assay: Antibacterial activity, alone and in combination with tazobactam; assay type: cell-based; details: co-administration with tazobactam
Protocol: as §1, §2

Gram-negative bacteria = assay: Antibacterial activity against tested Gram-negative strains (summary in words); assay type: cell-based; details: tested strains of Gram-negative bacteria
Protocol: as §1, §2

E. coli DCO = assay: MIC antibacterial assay (iron depleted media); assay type: cell-based; details: Escherichia coli
Protocol: as §1, §2

[4] = system: Citrobacter freuendii ATCC 29063; assay: MIC antibacterial assay (iron depleted media); assay type: cell-based; details: ATCC29063
Protocol: as §1, §2

[5] = system: Enterobacter aerogenes X816; assay: MIC antibacterial assay (iron depleted media); assay type: cell-based; details: Klebsiella aerogenes
Protocol: as §1, §2

P. aeruginosa ARC 3506 = assay: MIC antibacterial assay (iron depleted media); assay type: cell-based; details: Pseudomonas aeruginosa, ARC3506
Protocol: as §1, §2

A. baumannii ATCC 17961 = assay: MIC antibacterial assay (iron depleted media); assay type: cell-based; details: Acinetobacter baumannii, ATCC17961
Protocol: as §1, §2

[6] = system: Salmonella typhimurium ATCC13311; assay: MIC antibacterial assay (iron depleted media); assay type: cell-based; details: Salmonella enterica
Protocol: as §1, §2

P. aeruginosa ISR-14-004 = assay: MIC antibacterial assay (iron depleted media); assay type: cell-based
Protocol: as §1, §2

[7] = system: A. baumannii ATCC17978-PNT-165; assay: MIC antibacterial assay (iron depleted media); assay type: cell-based; details: Acinetobacter baumannii
Protocol: as §1, §2

P. aeruginosa ISR-14-003 = assay: MIC antibacterial assay (iron depleted media); assay type: cell-based
Protocol: as §1, §2

Proteus mirabilis X235 = assay: MIC antibacterial assay (iron depleted media); assay type: cell-based
Protocol: as §1, §2

[8] = system: A. baumannii ATCC BAA 1797; assay: MIC antibacterial assay (iron depleted media); assay type: cell-based; details: Acinetobacter baumannii, BAA1797
Protocol: as §1, §2

P. aeruginosa 01 = assay: MIC antibacterial assay (iron depleted media); assay type: cell-based; details: Pseudomonas aeruginosa
Protocol: as §1, §2

P. aeruginosa KW799/wt = assay: MIC antibacterial assay (iron depleted media); assay type: cell-based; details: Pseudomonas aeruginosa
Protocol: as §1, §2

S. aureus SG 511 = assay: MIC antibacterial assay (iron depleted media); assay type: cell-based; details: Staphylococcus aureus, SG511
Protocol: as §1, §2

B. dolosa AU0018 = assay: MIC antibacterial assay (iron depleted media); assay type: cell-based; details: Burkholderia dolosa
Protocol: as §1, §2

[9] = system: panel of Gram-negative and Gram-positive bacteria; assay: Antibacterial activity against a panel of bacteria; assay type: cell-based
Protocol: as §1, §2

P. aeruginosa ARC 3502 = assay: MIC antibacterial assay (iron depleted media); assay type: cell-based; details: Pseudomonas aeruginosa, read-out: MIC
Protocol: as §1, §2

[10] = system: A. baumannii ATCC BAA 1800; assay: MIC antibacterial assay (iron depleted media); assay type: cell-based, Acinetobacter baumannii; details: tazobactam alone @ 10 μg/ml
Protocol: as §1, §2

[11] = Acinetobacter baumannii, ATCC17978
[12] = Acinetobacter baumannii, ISR14005, A. baumannii ISR14-005 (clinical isolate), compound alone, MH2 broth with 160 μM bipyridyl added, read-out: MIC
[13] = E. coli DCO, MH2 broth with 160 μM bipyridyl added, read-out: MIC
[14] = Citrobacter freuendii ATCC 29063, MH2 broth with 160 μM bipyridyl added, read-out: MIC
[15] = Enterobacter aerogenes X816, MH2 broth with 160 μM bipyridyl added, read-out: MIC
[16] = Salmonella typhimurium ATCC13311, MH2 broth with 160 μM bipyridyl added, read-out: MIC
[17] = Pseudomonas aeruginosa, ISR14004, P. aeruginosa ISR-14-004 (clinical isolate), compound alone, MH2 broth with 160 μM bipyridyl added, read-out: MIC
[18] = Pseudomonas aeruginosa, ISR14003, P. aeruginosa ISR-14-003 (clinical isolate), compound alone, MH2 broth with 160 μM bipyridyl added, read-out: MIC
[19] = Proteus mirabilis X235, MH2 broth with 160 μM bipyridyl added, read-out: MIC
[20] = P. aeruginosa 01, MH2 broth with 160 μM bipyridyl added, read-out: MIC
[21] = P. aeruginosa KW799/wt, MH2 broth with 160 μM bipyridyl added, read-out: MIC
[22] = S. aureus SG 511, MH2 broth with 160 μM bipyridyl added, read-out: MIC
[23] = B. dolosa AU0018, MH2 broth with 160 μM bipyridyl added, read-out: MIC

Compound: CC(C)(O/N=C(\C(=O)NC1C(=O)N(S(=O)(=O)O)[C@H]1CSCCN)c1cnc(N)s1)C(=O)O (mixture of isomers) [Compound 39, (E)-3-(2-(2-aminothiazol-5-yl)-2-(((2-carboxypropan-2-yl)oxy)imino)acetamido)-2-(((2-ammonioethyl)thio)methyl)-4-oxoazetidine-1-sulfonate, potassium salt]
- MIC [1, 11]: > 50 µM
- MIC ([2]; Acinetobacter baumannii, BAA1793): 50 µM
- MIC (A.baumannii ISR14-005; Acinetobacter baumannii, ISR14005): > 50 µM
- MIC (A. baumannii ARC 5079; Acinetobacter baumannii, ARC5079): > 50 µM
- effect of combination with tazobactam on activity (in words) [3]: no improvement
- antibacterial activity (in words) (Gram-negative bacteria): generally improved activity
- MIC (E. coli DCO): 6 µM
- MIC ([4]; Citrobacter): 3 µM
- MIC ([5]; X816): 9.4 µM
- MIC (P. aeruginosa ARC 3506): > 50 µM
- MIC (A. baumannii ATCC 17961): > 50 µM
- MIC [6]: 4.5 µM
- MIC (P. aeruginosa ISR-14-004; Pseudomonas aeruginosa, ISR14004): > 50 µM
- MIC [7]: 50 µM
- MIC (P. aeruginosa ISR-14-003; Pseudomonas aeruginosa, ISR14003): > 50 µM
- MIC (Proteus mirabilis X235; Proteus mirabilis, X235): 3 µM
- MIC [8]: 50 µM
- MIC (P. aeruginosa 01; 01): > 50 µM
- MIC (P. aeruginosa KW799/wt; KW799/WT): > 50 µM
- MIC (S. aureus SG 511): > 50 µM
- MIC (B. dolosa AU0018; AU0018): > 50 µM

Compound: C[C@H]1[C@H](NC(=O)/C(=N\OC(C)(C)C(=O)O)c2csc(N)n2)C(=O)N1S(=O)(=O)O [Aztreonam, aztreonam, reference compound]
- MIC [1, 11]: 50 µM
- MIC (A.baumannii ISR14-005; [12]): > 50 µM
- MIC (A.baumannii ISR14-005; Acinetobacter baumannii, ISR14005, A. baumannii ISR14-005 (clinical isolate), in combination with tazobactam, read-out: MIC (+tazo)): 50 µM
- MIC (A. baumannii ARC 5079; Acinetobacter baumannii, ARC5079, A. baumannii ARC 5079, compound alone, MH2 broth with 160 μM bipyridyl added, read-out: MIC): 25 to 50 µM
- effect of combination with tazobactam on activity (in words) [3]: minimal effects
- MIC (E. coli DCO; [13]): 0.1 µM (≈ 0.0435 µg/mL)
- MIC [4, 14]: 0.1 µM (≈ 0.0435 µg/mL)
- MIC [5, 15]: 0.2 µM (≈ 0.0871 µg/mL)
- MIC [6, 16]: 0.1 µM (≈ 0.0435 µg/mL)
- MIC (P. aeruginosa ISR-14-004; [17]): 50 µM
- MIC (P. aeruginosa ISR-14-004; Pseudomonas aeruginosa, ISR14004, P. aeruginosa ISR-14-004 (clinical isolate), in combination with tazobactam, read-out: MIC (+tazo)): 0.4 µM
- MIC [7]: 12.5 µM (≈ 5.44 µg/mL)
- MIC (P. aeruginosa ISR-14-003; [18]): 6 µM
- MIC (P. aeruginosa ISR-14-003; Pseudomonas aeruginosa, ISR14003, P. aeruginosa ISR-14-003 (clinical isolate), in combination with tazobactam, read-out: MIC (+tazo)): 3 µM
- MIC (Proteus mirabilis X235; [19]): 0.05 µM (≈ 0.0218 µg/mL)
- MIC (P. aeruginosa 01; [20]): 3 µM (≈ 1.31 µg/mL)
- MIC (P. aeruginosa KW799/wt; [21]): 1.6 µM (≈ 0.697 µg/mL)
- MIC (S. aureus SG 511; [22]): > 50 µM
- MIC (B. dolosa AU0018; [23]): > 50 µM

Compound: COC(=O)CSCC1C(NC(=O)Cc2ccccc2)C(=O)N1S(=O)(=O)[O-].[K+] (stereo not shown) [Compound 24, Potassium 2-(((2-methoxy-2-oxoethyl)thio)methyl)-4-oxo-3-(2-phenylacetamido) azetidine-1-sulfonate]
- antibacterial activity (in words) ([9]; panel of Gram-negative and Gram-positive bacteria): not active
- antibacterial activity (MIC) ([9]; tested strains): > 50 µM

Compound: CO/N=C(\C(=O)NC1C(=O)N(S(=O)(=O)O)[C@H]1CSCCN)c1cnc(N)s1 (stereo partly shown) [Compound 35, (E)-3-(2-(2-aminothiazol-5-yl)-2-(methoxyimino)acetamido)-2-(((2-ammonioethyl)thio)methyl)-4-oxoazetidine-1-sulfonate, potassium salt]
- MIC (A.baumannii ISR14-005; [12]): > 50 µM
- antibacterial activity (in words) (Gram-negative bacteria): moderately active
- MIC (E. coli DCO; [13]): 25 µM
- MIC [4, 14]: 12.5 µM
- MIC [5, 15]: 0.2 µM
- MIC (P. aeruginosa ARC 3506; P. aeruginosa ARC 3506, compound alone, MH2 broth with 160 μM bipyridyl added, read-out: MIC): > 50 µM
- MIC (A. baumannii ATCC 17961; A. baumannii ATCC 17961, MH2 broth with 160 μM bipyridyl added, read-out: MIC): 50 µM
- MIC (P. aeruginosa ARC 3502; ARC3502, compound alone, MH2 broth with 160 μM bipyridyl added): > 50 µM
- MIC [6, 16]: 12.5 µM
- MIC (P. aeruginosa ISR-14-004; [17]): > 50 µM
- MIC [7]: 50 µM
- MIC (P. aeruginosa ISR-14-003; [18]): > 50 µM
- MIC (Proteus mirabilis X235; [19]): 12.5 µM
- MIC ([8]; A. baumannii ATCC BAA 1797, MH2 broth with 160 μM bipyridyl added, read-out: MIC): > 50 µM
- MIC (P. aeruginosa 01; [20]): > 50 µM
- MIC (P. aeruginosa KW799/wt; [21]): > 50 µM
- MIC (S. aureus SG 511; [22]): > 50 µM

Compound: C[C@]1(Cn2ccnn2)[C@H](C(=O)O)N2C(=O)C[C@H]2S1(=O)=O [Tazobactam, tazobactam, reference compound]
- MIC [1, 11]: < 10 µg/mL
- inhibition ([2]; A. baumannii ATCC BAA 1793, tazobactam alone @ 10 μg/ml): very slight
- MIC (A.baumannii ISR14-005; Acinetobacter baumannii, ISR14005, A. baumannii ISR14-005, tazobactam alone, read-out: MIC): > 20 µg/mL
- inhibition [10]: very slight
- MIC (A. baumannii ARC 5079; Acinetobacter baumannii, ARC5079, A. baumannii ARC 5079, tazobactam alone, read-out: MIC): > 10 µg/mL
- MIC (P. aeruginosa ARC 3506; P. aeruginosa ARC 3506, tazobactam alone, read-out: MIC): > 10 µg/mL
- MIC (P. aeruginosa ARC 3502; ARC3502, tazobactam alone): > 10 µg/mL
- MIC (P. aeruginosa ISR-14-004; Pseudomonas aeruginosa, ISR14004, P. aeruginosa ISR-14-004, tazobactam alone, read-out: MIC): > 20 µg/mL
- MIC (P. aeruginosa ISR-14-003; Pseudomonas aeruginosa, ISR14003, P. aeruginosa ISR-14-003, tazobactam alone, read-out: MIC): > 20 µg/mL
- MIC (B. dolosa AU0018; [23]): > 50 µM

Compound: Polymixin B [reference compound]
- MIC ([1]; A. baumannii ATCC 17978-PNT-320 (cephalosporinase producing organism), MH2 broth with 160 μM bipyridyl added): <0.025 µM
- MIC ([2]; A. baumannii ATCC BAA 1793, MH2 broth with 160 μM bipyridyl added): <0.025 µM
- MIC (A.baumannii ISR14-005; A. baumannii ISR14-005 (clinical isolate), compound alone, MH2 broth with 160 μM bipyridyl added, read-out: MIC): <0.025 µM
- MIC (A. baumannii ARC 5079; A. baumannii ARC 5079, compound alone, MH2 broth with 160 μM bipyridyl added): <0.025 to 0.1 µM
- antibacterial activity (in words) (Gram-negative bacteria): excellent activity
- MIC (P. aeruginosa ISR-14-004; P. aeruginosa ISR-14-004 (clinical isolate), compound alone, MH2 broth with 160 μM bipyridyl added, read-out: MIC): 0.05 µM
- MIC (P. aeruginosa ISR-14-003; P. aeruginosa ISR-14-003 (clinical isolate), compound alone, MH2 broth with 160 μM bipyridyl added, read-out: MIC): 0.1 µM
